Assay results taken from patent US20070128217A1 (priority 2003, published 2007).

Assays:
[1] = test system: control sera (pooled serum of ten healthy LUMC hospital workers; commercial negative donor pooled serum from the Dutch bloodbank); format: binding, human; design: Binding of Control serum LUMC to linear peptides / Binding of Control serum Blood-bank to linear peptides / Binding of Control serum LUMC to looped peptides / Binding of Control Serum Blood-Bank to Looped peptides / Binding of Control serum LUMC to linear peptides of the protein M of SARS-CoV Urbani / Binding of Control serum Blood-bank to linear peptides of the protein M of SARS-CoV Urbani / Binding of Control serum LUMC to looped peptides of the protein M of SARS-CoV Urbani / Binding of Control Serum Blood-Bank to Looped peptides of the protein M of SARS-CoV Urbani: unit not given here
[2] = test system: antibodies in sera from SARS patients (sera 1a, 1b, 2, 6, 37, 62, London, SARS-yellow, SARS-green); format: binding, human; design: Binding of serum 6 to linear peptides of protein X1 of SARS-CoV Urbani / Binding of serum 37 to linear peptides of protein X1 of SARS-CoV Urbani / Binding of serum 6 to looped/cyclic peptide (PEPSCAN-ELISA) / Binding of serum 37 to looped/cyclic peptide (PEPSCAN-ELISA) / Binding of serum 37 to looped/cyclic peptides of protein X1 of SARS-CoV Urbani / Binding of serum 6 to linear peptides of protein X2 / Binding of serum 37 to linear peptides of protein X2 / Binding of serum 37 to looped/cyclic peptides of protein X2 of SARS-CoV Urbani / Binding of serum 6 to linear peptides of protein M of SARS-CoV Urbani / Binding of serum 37 to linear peptides of protein M of SARS-CoV Urbani / Binding of serum 6 to looped/cyclic peptides of protein M of SARS-CoV Urbani / Binding of serum 37 to looped/cyclic peptides of protein M of SARS-CoV Urbani / Binding of serum 6 to linear peptides of protein X3 of SARS-CoV Urbani / Binding of serum 37 to linear peptides of protein X3 of SARS-CoV Urbani / Binding of serum 37 to looped/cyclic peptides of protein X3 of SARS-CoV Urbani / Binding of serum 6 to linear peptides of protein X4 of SARS-CoV Urbani / Binding of serum 37 to linear peptides of protein X4 of SARS-CoV Urbani / Binding of serum 37 to looped/cyclic peptides of protein X4 of SARS-CoV Urbani / Binding of serum 6 to linear peptides of protein X5 of SARS-CoV Urbani / Binding of serum 37 to linear peptides of protein X5 of SARS-CoV Urbani / Binding of serum 37 to looped/cyclic peptides of protein X5 of SARS-CoV Urbani / Binding of serum 6 to linear peptides of protein N of SARS-CoV Urbani / Binding of serum 37 to linear peptides of protein N of SARS-CoV Urbani / Binding of serum 6 to linear peptide (PEPSCAN-ELISA) / Binding of serum 1a to looped/cyclic peptides of protein N of SARS-CoV Urbani / Binding of serum 1b to looped/cyclic peptides of protein N of SARS-CoV Urbani / Binding of serum 2 to looped/cyclic peptides of protein N of SARS-CoV Urbani / Binding of serum 6 to looped/cyclic peptides of protein N of SARS-CoV Urbani / Binding of serum 37 to looped/cyclic peptides of protein N of SARS-CoV Urbani / Binding of serum 62 to looped/cyclic peptides of protein N of SARS-CoV Urbani / Binding of serum London to looped/cyclic peptides of protein N of SARS-CoV Urbani / Binding of serum SARS-green to looped/cyclic peptides of protein N of SARS-CoV Urbani: unit not given here
[3] = test system: rabbit serum obtained by immunizing a rabbit with the SARS-CoV strain Frankfurt 1; format: binding; design: Binding of a rabbit serum to linear peptides / Binding of a rabbit serum to looped peptides / Rabbit serum linear peptides / Rabbit serum looped peptides / Binding of a rabbit serum to linear peptides of protein N of SARS-CoV Urbani (Rabbit serum linear peptides) / Binding of a rabbit serum to looped/cyclic peptides of protein N of SARS-CoV Urbani (Rabbit serum looped peptides): unit not given here

SQIQLSLLKVTAFQH
Binding of Control Serum Blood-Bank to Looped peptides [1]: 0.6
Binding of Control serum Blood-bank to linear peptides [1]: 0.5
Binding of Control serum LUMC to linear peptides [1]: 0.7
Binding of Control serum LUMC to looped peptides [1]: 0.6
Binding of serum 1a to linear peptides of protein X2 [2]: 0.6
Binding of serum 1a to looped/cyclic peptides of protein X2 of SARS-CoV Urbani [2]: 0.5
Binding of serum 1b to linear peptides of protein X2 [2]: 0.5
Binding of serum 1b to looped/cyclic peptides of protein X2 of SARS-CoV Urbani [2]: 0.5
Binding of serum 2 to linear peptides of protein X2 [2]: 0.4
Binding of serum 2 to looped/cyclic peptides of protein X2 of SARS-CoV Urbani [2]: 0.4
Binding of serum 6 to linear peptides of protein X2 [2]: 0.5
Binding of serum 6 to looped/cyclic peptides of protein X2 of SARS-CoV Urbani [2]: 0.6
Binding of serum 37 to linear peptides of protein X2 [2]: 0.5
Binding of serum 37 to looped/cyclic peptides of protein X2 of SARS-CoV Urbani [2]: 0.4
Binding of serum 62 to linear peptides of protein X2 [2]: 0.4
Binding of serum 62 to looped/cyclic peptides of protein X2 of SARS-CoV Urbani [2]: 0.6
Binding of serum London to linear peptides of protein X2 [2]: 0.3
Binding of serum London to looped/cyclic peptides of protein X2 of SARS-CoV Urbani [2]: 1.0
Binding of serum SARS-green to linear peptides of protein X2 [2]: 0.2
Binding of serum SARS-green to looped/cyclic peptides of protein X2 of SARS-CoV Urbani [2]: 0.2
Binding of serum SARS-yellow to linear peptides of protein X2 [2]: 0.3
Binding of serum SARS-yellow to looped/cyclic peptides of protein X2 of SARS-CoV Urbani [2]: 0.7
Binding of a rabbit serum to linear peptides [3]: 0.7
Binding of a rabbit serum to looped peptides [3]: 0.5

SRTLSYYKLGASQRV
Binding of Control Serum Blood-Bank to Looped peptides of the protein M of SARS-CoV Urbani [1]: 0.6
Binding of Control serum Blood-bank to linear peptides of the protein M of SARS-CoV Urbani [1]: 0.9
Binding of Control serum LUMC to linear peptides of the protein M of SARS-CoV Urbani [1]: 0.5
Binding of Control serum LUMC to looped peptides of the protein M of SARS-CoV Urbani [1]: 0.8
Binding of serum 1a to linear peptides of protein M of SARS-CoV Urbani [2]: 0.8
Binding of serum 1a to looped/cyclic peptides of protein M of SARS-CoV Urbani [2]: 0.9
Binding of serum 1b to linear peptides of protein M of SARS-CoV Urbani [2]: 0.5
Binding of serum 1b to looped/cyclic peptides of protein M of SARS-CoV Urbani [2]: 0.3
Binding of serum 2 to linear peptides of protein M of SARS-CoV Urbani [2]: 0.8
Binding of serum 2 to looped/cyclic peptides of protein M of SARS-CoV Urbani [2]: 0.7
Binding of serum 6 to linear peptides of protein M of SARS-CoV Urbani [2]: 0.4
Binding of serum 6 to looped/cyclic peptides of protein M of SARS-CoV Urbani [2]: 0.9
Binding of serum 37 to linear peptides of protein M of SARS-CoV Urbani [2]: 0.8
Binding of serum 37 to looped/cyclic peptides of protein M of SARS-CoV Urbani [2]: 0.8
Binding of serum 62 to linear peptides of protein M of SARS-CoV Urbani [2]: 0.8
Binding of serum 62 to looped/cyclic peptides of protein M of SARS-CoV Urbani [2]: 0.7
Binding of serum London to linear peptides of protein M of SARS-CoV Urbani [2]: 0.3
Binding of serum London to looped/cyclic peptides of protein M of SARS-CoV Urbani [2]: 0.3
Binding of serum SARS-green to linear peptides of protein M of SARS-CoV Urbani [2]: 0.2
Binding of serum SARS-green to looped/cyclic peptides of protein M of SARS-CoV Urbani [2]: 0.4
Binding of serum SARS-yellow to linear peptides of protein M of SARS-CoV Urbani [2]: 0.1
Binding of serum SARS-yellow to looped/cyclic peptides of protein M of SARS-CoV Urbani [2]: 0.8
Rabbit serum linear peptides [3]: 0.6
Rabbit serum looped peptides [3]: 0.6

SSLTSLLKTHRMCKY
Binding of Control Serum Blood-Bank to Looped peptides [1]: 0.7
Binding of Control serum Blood-bank to linear peptides [1]: 0.8
Binding of Control serum LUMC to linear peptides [1]: 0.4
Binding of Control serum LUMC to looped peptides [1]: 0.6
Binding of serum 1a to linear peptides of protein X2 [2]: 0.6
Binding of serum 1a to looped/cyclic peptides of protein X2 of SARS-CoV Urbani [2]: 0.5
Binding of serum 1b to linear peptides of protein X2 [2]: 0.5
Binding of serum 1b to looped/cyclic peptides of protein X2 of SARS-CoV Urbani [2]: 0.5
Binding of serum 2 to linear peptides of protein X2 [2]: 0.4
Binding of serum 2 to looped/cyclic peptides of protein X2 of SARS-CoV Urbani [2]: 0.4
Binding of serum 6 to linear peptides of protein X2 [2]: 0.5
Binding of serum 6 to looped/cyclic peptides of protein X2 of SARS-CoV Urbani [2]: 0.3
Binding of serum 37 to linear peptides of protein X2 [2]: 0.5
Binding of serum 37 to looped/cyclic peptides of protein X2 of SARS-CoV Urbani [2]: 0.3
Binding of serum 62 to linear peptides of protein X2 [2]: 0.6
Binding of serum 62 to looped/cyclic peptides of protein X2 of SARS-CoV Urbani [2]: 0.6
Binding of serum London to linear peptides of protein X2 [2]: 0.4
Binding of serum London to looped/cyclic peptides of protein X2 of SARS-CoV Urbani [2]: 0.2
Binding of serum SARS-green to linear peptides of protein X2 [2]: 0.5
Binding of serum SARS-green to looped/cyclic peptides of protein X2 of SARS-CoV Urbani [2]: 0.2
Binding of serum SARS-yellow to linear peptides of protein X2 [2]: 0.3
Binding of serum SARS-yellow to looped/cyclic peptides of protein X2 of SARS-CoV Urbani [2]: 0.6
Binding of a rabbit serum to linear peptides [3]: 0.3
Binding of a rabbit serum to looped peptides [3]: 0.5
